One substance from publication PMC6936879, “Inhibiting the copper efflux system in microbes as a novel approach for developing antibiotics” (PLoS ONE, 2019) can be followed below.

The target in experiment [1] is T1, CusB (Escherichia coli, UniProt P77239, A236C/A248C).
T1 construct: intein (cleaved yes); made in house; host or cells: E. coli BL21 (DE3)
Description: DEER distance distribution measurements on spin-labeled CusB. Also noted: species or system E. coli. Particulars: CusB spin labeled (MTSSL) at A236C and A248C; Cu(I):CusB 3:1; Q-band DEER at 50 K; apo-CusB 2.5 ± 0.5 nm, holo-CusB 2.8 ± 0.3 nm. On the procedure:
Before labeling, 10 mM DTT was added to the protein solution and mixed overnight at 4°C. DTT was dialyzed out using a Microsep Advanced Centrifugal Device (Pall, Port Washington, NY, USA) applied to samples of up to 5 mL in lysis buffer, with a 3-kDa molecular weight cutoff. Next, 0.25 mg of S-(2,2,5,5-tetramethyl-2,5-dihydro-1H-pyrrol-3-yl)methyl methanesulfonothioate (MTSSL, TRC) was dissolved in 15 μL Dimethyl sulfoxide (DMSO) and added to 0.75 ml of 0.01 mM protein solution (20-fold molar excess of MTSSL). The protein solution was then vortexed overnight at 4°C. The free spin label and Cu(I) ions were removed by several dialysis cycles over 4 days. […] The concentration was determined with a Lowry assay. […]
A constant-time four-pulse double electron-electron resonance (DEER) experiment with pulse sequence π/2(νobs)-τ1-π(νobs)-t′−π(νpump)-(τ1 + τ2 − t′)-π(νobs)-τ2(νobs)-τ2-echo was performed at (50 ± 0.5 K) on a Q-band Elexsys E580 equipped with a 2-mm probe head; bandwidth, 220 MHz. […] The echo was measured as a function of t′, and τ2 was kept constant to eliminate relaxation effects. […] The samples were measured in 1.6-mm quartz capillary tubes (Wilmad-Labglass, Vineland, NJ, USA). The data were analyzed with the DeerAnalysis 2016 program and with Tikhonov regularization. […]

The test system of experiment [2] is E. coli (BL21;DE3). Description: E. coli viability assay (LIVE/DEAD fluorescence imaging). The format is cell-based. Particulars: peptide 125 μM; LIVE/DEAD staining, M9 medium, confocal imaging, cell counts with ImageJ; mean ± SE, n = 3. On the procedure:
E. coli (BL21;DE3) were dyed using the L7007 LIVE/DEAD Bacterial Viability kit (Molecular Probes, Eugene OR, USA); microbes were grown in M9 medium. Images were acquired on a Leica SP8 confocal microscope, running LASX acquisition software. The magnification consisted of a 63 X 1.4 NA objective. Microbes were counted using ImageJ software. Error calculations were based on three repetitions, with each experiment scanned at nine different tiles—all together, 27 repetitions.
Live/dead fluorescence cell imaging experiments were used to indicate bacterial viability when incubated with the peptides. This method also helped to determine whether the decrease in the growth rate described above resulted from deceleration in E. coli growth or its substantial death. E coli were grown to the late […] phase (according to the growth rate lines; Figs B to D in S1 File) in the presence of the peptides in poor medium (M9), which mostly resembles physiological conditions.[52–54] Glucose levels in the growth media were sufficient to prevent bacterial viability loss due to lack of nutrition, yet not too high to positively affect its viability. […] However, the effect of the peptides was not as substantial as the commercially available antibiotic kanamycin. […] 5 ± 4.3% and up to 45.3 ± 4.3% reduction at a concentration of 125 μM.
Fig 4 Effect of the test peptides on E. coli viability. […]

In experiment [3] the test system is E. coli (BL21). Description: Kirby-Bauer test (disc diffusion). The format is cell-based. Particulars: 2 mm radius discs, LB petri dishes, 37 °C overnight. For orientation: Agar diffusion results depend on both activity and mobility in agar.

Take AKIQG [pep8]: the “DEER distance distribution of CusB bound to peptide and incubated with Cu(I)” value in experiment [1] is “around 3.2 nm”. Moreover, the “reduction of bacterial viability” value in experiment [2] was 41 ±5.15%. Moreover, the “r, radius of bacteria killing formed over petri dishes by peptide-solution discs” value in experiment [3] (disc solution 50 µM in 0.85% NaCl) is on record as 0 mm; in experiment [3] (disc solution 75 µM in 0.85% NaCl) it was 0.5 mm; in experiment [3] (disc solution 100 µM in 0.85% NaCl), 0.5 mm; in experiment [3] (disc solution 125 µM in 0.85% NaCl) it was 1 mm.
